Common to all, as to type: cell membranes
Experiment [1] is filed under the species Rattus norvegicus. The experiment can be described thus: Negative allosteric modulation of GABAB receptor in Sprague-Dawley rat brain cortex membrane assessed as decrease in [35S]GTPgammaS binding at 25 uM incubated for 30 mins relative to control. Also on record: scale not given: the % may be the effect or the level left. To be noted: Cerebral cortex, filed as negative allosteric modulator.

The species named for experiment [2] is Rattus norvegicus. The experiment can be described thus: Antagonist activity at GABAB receptor in Sprague-Dawley rat brain cortex membrane assessed as decrease in 10 uM GABA-stimulated [35S]GTPgammaS binding at 25 uM incubated for 30 mins relative to GABA. To be noted: Cerebral cortex, filed as antagonist. Also on record: scale not given: the % may be the effect or the level left. On the technique in general: GTPγS is a poorly hydrolysed GTP analogue; its binding reports G protein activation.

The species entered for experiment [3] is Rattus norvegicus. The experiment can be described thus: Negative allosteric modulation of GABAB receptor in Sprague-Dawley rat brain cortex membrane assessed as decrease in [35S]GTPgammaS binding at 2.5 uM incubated for 30 mins relative to control. Also on record: scale not given: the % may be the effect or the level left. Particulars: Cerebral cortex, filed as negative allosteric modulator.

The species named for experiment [4] is Rattus norvegicus. Put plainly: Antagonist activity at GABAB receptor in Sprague-Dawley rat brain cortex membrane assessed as decrease in 10 uM GABA-stimulated [35S]GTPgammaS binding at 2.5 uM incubated for 30 mins relative to GABA. Set-up: scale not given: the % may be the effect or the level left. Particulars: Cerebral cortex, filed as antagonist.
The species named for experiment [5] is Rattus norvegicus. The experiment can be described thus: Negative allosteric modulation of GABAB receptor in Sprague-Dawley rat brain cortex membrane assessed as decrease in [35S]GTPgammaS binding for 30 mins. To be noted: Cerebral cortex, filed as negative allosteric modulator.
The species named for experiment [6] is Rattus norvegicus. Put plainly: Antagonist activity at GABAB receptor in Sprague-Dawley rat brain cortex membrane assessed as decrease in 10 uM GABA-stimulated [35S]GTPgammaS binding incubated for 30 mins. Particulars: Cerebral cortex, filed as antagonist.
The species named for experiment [7] is Rattus norvegicus. Put plainly: Agonist activity at GABAB receptor in Sprague-Dawley rat brain cortex membrane assessed as decrease in 10 uM GABA-stimulated [35S]GTPgammaS binding at 25 uM incubated for 30 mins. To be noted: Cerebral cortex, filed as agonist. Set-up: scale not given: the % may be the effect or the level left.
The species named for experiment [8] is Rattus norvegicus. Put plainly: Agonist activity at GABAB receptor in Sprague-Dawley rat brain cortex membrane assessed as decrease in 10 uM GABA-stimulated [35S]GTPgammaS binding at 2.5 uM incubated for 30 mins. Also on record: scale not given: the % may be the effect or the level left. To be noted: Cerebral cortex, filed as agonist.

Consider `Cc1c(O)nc(-c2ccccc2)n(Cc2ccccc2)c1=O`, for which the Activity in the experiment filed under Rattus norvegicus [1] is 8.3%; in the experiment listed under Rattus norvegicus [2], 6.2%; in the experiment filed under Rattus norvegicus [3], 3.3%; in the experiment filed under Rattus norvegicus [4], 5.7%.
For the molecule `Cn1c(Sc2ccc(Cl)cc2)nc(-c2ccccc2)cc1=O`, the Activity entry in the experiment listed under Rattus norvegicus [5] was “Dose-dependent effect”; in the experiment filed under Rattus norvegicus [1] it was 34.7%; in the experiment filed under Rattus norvegicus [2] it was 34.1%; in the experiment listed under Rattus norvegicus [3] it was 12.2%; in the experiment filed under Rattus norvegicus [6] it was “Dose-dependent effect”; in the experiment listed under Rattus norvegicus [4], 10.9%.
Regarding `CCOC(=O)c1cnc(SC)nc1NC1CCCC1`, the Activity result in the experiment filed under Rattus norvegicus [5] was “Dose-dependent effect”; in the experiment listed under Rattus norvegicus [1], 29.3%; in the experiment listed under Rattus norvegicus [2], 5.7%; in the experiment listed under Rattus norvegicus [3], 25%; in the experiment filed under Rattus norvegicus [4], 10.3%.
With `CCCCCn1c(=O)c(C(C)C)c(O)c2cc(C(C)C)ccc21`, the Activity entry in the experiment listed under Rattus norvegicus [5] is “Dose-dependent effect”; in the experiment filed under Rattus norvegicus [1], 37.7%; in the experiment filed under Rattus norvegicus [2], 24.4%; in the experiment listed under Rattus norvegicus [3], 9%; in the experiment listed under Rattus norvegicus [6], “Dose-dependent effect”; in the experiment listed under Rattus norvegicus [4], 7%.
On to `O=c1cc(O)nc(-c2ccccc2)n1Cc1ccccc1`, for which the Activity in the experiment filed under Rattus norvegicus [1] was 14%; in the experiment filed under Rattus norvegicus [2] it was 12.4%; in the experiment filed under Rattus norvegicus [3] it was 2.4%; in the experiment filed under Rattus norvegicus [4] it was 0.9%.
For `CC(C)c1ccc2c(c1)c(O)c(C(C)C)c(=O)n2CC(C)(C)C`, the Activity result in the experiment filed under Rattus norvegicus [5] was “Dose-dependent effect”; in the experiment listed under Rattus norvegicus [1], 13.8%; in the experiment filed under Rattus norvegicus [7], 2.6%; in the experiment filed under Rattus norvegicus [3], 3.2%; in the experiment filed under Rattus norvegicus [4] it was 2%.
Regarding `Cn1c(Sc2ccc(Cl)cc2)nc(-c2ccc(C(C)(C)C)cc2)cc1=O`, the Activity entry in the experiment filed under Rattus norvegicus [5] was “Dose-dependent effect”; in the experiment listed under Rattus norvegicus [1], 9.7%; in the experiment listed under Rattus norvegicus [2], 3.1%; in the experiment listed under Rattus norvegicus [3] it was 4%; in the experiment listed under Rattus norvegicus [4], 8.2%.
Regarding `CC(C)c1c(O)c2cc(C(C)(C)C)ccc2n(CC(C)(C)C)c1=O`, the Activity entry in the experiment listed under Rattus norvegicus [5] is “Dose-dependent effect”; in the experiment listed under Rattus norvegicus [1], 22.7%; in the experiment listed under Rattus norvegicus [2], 6.3%; in the experiment filed under Rattus norvegicus [3], 2%; in the experiment filed under Rattus norvegicus [8], 1.7%.
On to `CSc1ncc(-c2nnc(C)o2)c(NC2CCCC2)n1`, for which the Activity entry was “Dose-dependent effect” in the experiment listed under Rattus norvegicus [5]; 37.7% in the experiment filed under Rattus norvegicus [1]; 19% in the experiment listed under Rattus norvegicus [2]; 25.3% in the experiment listed under Rattus norvegicus [3]; 17.1% in the experiment listed under Rattus norvegicus [4].
For `CC(C)Cn1c(=O)c(C(C)C)c(O)c2cc(C(C)(C)C)ccc21`, the Activity entry in the experiment listed under Rattus norvegicus [5] is “Dose-dependent effect”; in the experiment filed under Rattus norvegicus [1] it was 50.7%; in the experiment filed under Rattus norvegicus [2], 36.2%; in the experiment filed under Rattus norvegicus [3], 23%; in the experiment filed under Rattus norvegicus [6] it was “Dose-dependent effect”; in the experiment filed under Rattus norvegicus [4], 15.3%.
Consider `CC(C)Cn1c(=O)c(C(C)C)c(O)c2cc(C(C)C)ccc21`, for which the Activity result in the experiment filed under Rattus norvegicus [5] is “Dose-dependent effect”; in the experiment listed under Rattus norvegicus [1], 41.5%; in the experiment filed under Rattus norvegicus [2] it was 41.5%; in the experiment filed under Rattus norvegicus [3], 8.7%; in the experiment listed under Rattus norvegicus [6], “Dose-dependent effect”; in the experiment filed under Rattus norvegicus [4], 13.5%.
On to `O=c1cc(-c2ccccc2)nc(Sc2ccccc2)[nH]1`, for which the Activity entry in the experiment filed under Rattus norvegicus [5] was “Dose-dependent effect”; in the experiment filed under Rattus norvegicus [1] it was 7.3%; in the experiment filed under Rattus norvegicus [2], 6.1%; in the experiment listed under Rattus norvegicus [3] it was 3.3%; in the experiment listed under Rattus norvegicus [4], 4.7%.
As to `CC(C)c1c(O)nc(-c2ccccc2)n(Cc2ccccc2)c1=O`, the Activity came out at 13% in the experiment filed under Rattus norvegicus [1], 8% in the experiment filed under Rattus norvegicus [2], 2.3% in the experiment filed under Rattus norvegicus [3] and 5.2% in the experiment filed under Rattus norvegicus [4].
In the case of `CCCn1c(=O)c(C)c(O)c2cc(OC)ccc21`, the Activity entry in the experiment listed under Rattus norvegicus [5] is “Dose-dependent effect”; in the experiment listed under Rattus norvegicus [1] it was 10.5%; in the experiment listed under Rattus norvegicus [2], 7.4%; in the experiment listed under Rattus norvegicus [3], 5%; in the experiment filed under Rattus norvegicus [4], 4.3%.
For the molecule `CSc1ncc(-c2nc(C)no2)c(NC2CCCC2)n1`, the Activity entry in the experiment filed under Rattus norvegicus [5] is “Dose-dependent effect”; in the experiment listed under Rattus norvegicus [1], 33.3%; in the experiment filed under Rattus norvegicus [2] it was 19%; in the experiment listed under Rattus norvegicus [3], 19%; in the experiment filed under Rattus norvegicus [6] it was “Dose-dependent effect”; in the experiment listed under Rattus norvegicus [4], 10.3%.
For the molecule `CCOC(=O)c1cnc(-n2nc(C)cc2C)nc1NC1CCCC1`, the Activity result in the experiment filed under Rattus norvegicus [5] is “Dose-dependent effect”; in the experiment listed under Rattus norvegicus [1] it was 44.7%; in the experiment listed under Rattus norvegicus [2], 40.8%; in the experiment filed under Rattus norvegicus [3] it was 18.3%; in the experiment filed under Rattus norvegicus [6], “Dose-dependent effect”; in the experiment filed under Rattus norvegicus [4], 14.4%.
For the molecule `Cc1c(O)c2cc(C(C)(C)C)ccc2n(CC(C)C)c1=O`, the Activity result is “Dose-dependent effect” in the experiment filed under Rattus norvegicus [5]; 32.5% in the experiment filed under Rattus norvegicus [1]; 23.6% in the experiment filed under Rattus norvegicus [2]; 13.5% in the experiment listed under Rattus norvegicus [3]; “Dose-dependent effect” in the experiment listed under Rattus norvegicus [6]; 8.4% in the experiment listed under Rattus norvegicus [4].
Consider `Cn1c(Sc2ccccc2)nc(-c2ccccc2)cc1=O`, for which the Activity entry in the experiment listed under Rattus norvegicus [5] is “Dose-dependent effect”; in the experiment filed under Rattus norvegicus [1], 9.7%; in the experiment filed under Rattus norvegicus [2], 4.7%; in the experiment filed under Rattus norvegicus [3], 4.7%; in the experiment listed under Rattus norvegicus [4], 1.6%.
In the case of `O=c1cc(-c2ccccc2)nc(Sc2ccc(Cl)cc2)[nH]1`, the Activity result is “Dose-dependent effect” in the experiment listed under Rattus norvegicus [5]; 14.7% in the experiment filed under Rattus norvegicus [1]; 7.4% in the experiment listed under Rattus norvegicus [2]; 8.7% in the experiment listed under Rattus norvegicus [3]; 4.9% in the experiment filed under Rattus norvegicus [4].

For the origin of these results see ChEMBL document CHEMBL4725300, “Structure optimization of positive allosteric modulators of GABA receptors led to the unexpected discovery of antagonists/potential negative allosteric modulators” (Bioorg Med Chem Lett, 2020).
